Tests used:
[1] = molecular target: T1, JAK2(h) (Homo sapiens, UniProt O60674); experiment: In vitro activity test of JAK2 kinase ([γ-33P]-ATP filter assay, Eurofins); type: biochemical
T1 construct: purchased Eurofins (UK)
Description: Recombinant human JAK1, JAK2, JAK3, and Tyk2 proteases, along with major instruments and reagents, were provided by Eurofins in the UK.
(§1) JAK2, JAK3, and TYK2 were diluted with: 20 mM 3-(N-morpholino)propanesulfonic acid (MOPS), 1 mM EDTA, 0.01% Brij-35.5% glycerol, 0.1% β-mercaptoethanol, 1 mg/mL BSA; JAK1 was diluted with: 20 mM TRIS, 0.2 mM EDTA, 0.1% β-mercaptoethanol, 0.01% Brij-35.5% glycerol. The compound of formula (I) was prepared as a 100% DMSO solution and diluted to 50 times the final assay concentration. The test compound was subjected to a 3-fold serial dilution, with final concentrations ranging from 10 µM to 0.001 µM across 9 concentrations, and the DMSO content in the detection reaction was 2%. The working stock solution of this compound was added as the first component of the reaction to the assay wells, followed by the addition of the remaining components according to the protocol detailed below.
JAK2(h) was incubated with 8 mM MOPS pH 7.0, 0.2 mM EDTA, 100 µM […], 10 mM magnesium acetate, and [γ-^33P]-ATP (prepared to the required activity and concentration). The reaction was initiated by adding the Mg/ATP mixture and incubated at room temperature for 40 minutes, then terminated by adding 0.5% phosphoric acid. […]
The IC50 results were analyzed using XLFIT5 (205 formula) from IDBS, as detailed in Table 12. […]

[2] = molecular target: T2, TYK2(h) (Homo sapiens, UniProt P29597); experiment: In vitro activity test of TYK2 kinase ([γ-33P]-ATP filter assay, Eurofins); type: biochemical
T2 construct: purchased Eurofins (UK)
Description: as §1, with “Recombinant human JAK1, JAK2, JAK3, and Tyk2 proteases, along with major instruments and reagents, were provided by Eurofins in the UK. JAK2,” for “JAK2,”, “below. TYK2(h) was incubated with 8 mM MOPS pH 7.0, 0.2 mM EDTA, 250 µM GGMEDIYFEFMGGKKK, 10 mM magnesium acetate, and [γ-^33P]-ATP (activity and concentration adjusted as needed). The reaction was initiated by adding the Mg/ATP mixture and incubated at room temperature for 40 minutes, then terminated by adding 0.5% phosphoric acid. […] The IC50 results were analyzed using XLFIT5 (205 formula) from IDBS, as detailed in Table 12. […]” for “below.”

[3] = Pharmacokinetic (PK) test in mice; type: in vivo, male mice (balb/c)
Description: The clarified solutions obtained by dissolving the test compound were administered to male mice (balb/c) via tail vein injection and oral gavage, respectively. After administration of the test compound, blood was collected from the mandibular vein at 0.083, 0.25, 0.5, 1, 2, 4, 8, and 24 hours for the intravenous injection group (1 mg/kg) and at 0.25, 0.5, 1, 2, 4, 6, 8, and 24 hours for the oral gavage group (3 mg/kg), followed by centrifugation to obtain plasma. Plasma concentrations were determined by the LC-MS/MS method, and relevant pharmacokinetic parameters were calculated using WinNonlin™ Version 6.3 pharmacokinetic software with non-compartmental model linear-log trapezoidal method. PK test results of the compound of formula (I) in mice

T2 sequence (P29597 whole entry): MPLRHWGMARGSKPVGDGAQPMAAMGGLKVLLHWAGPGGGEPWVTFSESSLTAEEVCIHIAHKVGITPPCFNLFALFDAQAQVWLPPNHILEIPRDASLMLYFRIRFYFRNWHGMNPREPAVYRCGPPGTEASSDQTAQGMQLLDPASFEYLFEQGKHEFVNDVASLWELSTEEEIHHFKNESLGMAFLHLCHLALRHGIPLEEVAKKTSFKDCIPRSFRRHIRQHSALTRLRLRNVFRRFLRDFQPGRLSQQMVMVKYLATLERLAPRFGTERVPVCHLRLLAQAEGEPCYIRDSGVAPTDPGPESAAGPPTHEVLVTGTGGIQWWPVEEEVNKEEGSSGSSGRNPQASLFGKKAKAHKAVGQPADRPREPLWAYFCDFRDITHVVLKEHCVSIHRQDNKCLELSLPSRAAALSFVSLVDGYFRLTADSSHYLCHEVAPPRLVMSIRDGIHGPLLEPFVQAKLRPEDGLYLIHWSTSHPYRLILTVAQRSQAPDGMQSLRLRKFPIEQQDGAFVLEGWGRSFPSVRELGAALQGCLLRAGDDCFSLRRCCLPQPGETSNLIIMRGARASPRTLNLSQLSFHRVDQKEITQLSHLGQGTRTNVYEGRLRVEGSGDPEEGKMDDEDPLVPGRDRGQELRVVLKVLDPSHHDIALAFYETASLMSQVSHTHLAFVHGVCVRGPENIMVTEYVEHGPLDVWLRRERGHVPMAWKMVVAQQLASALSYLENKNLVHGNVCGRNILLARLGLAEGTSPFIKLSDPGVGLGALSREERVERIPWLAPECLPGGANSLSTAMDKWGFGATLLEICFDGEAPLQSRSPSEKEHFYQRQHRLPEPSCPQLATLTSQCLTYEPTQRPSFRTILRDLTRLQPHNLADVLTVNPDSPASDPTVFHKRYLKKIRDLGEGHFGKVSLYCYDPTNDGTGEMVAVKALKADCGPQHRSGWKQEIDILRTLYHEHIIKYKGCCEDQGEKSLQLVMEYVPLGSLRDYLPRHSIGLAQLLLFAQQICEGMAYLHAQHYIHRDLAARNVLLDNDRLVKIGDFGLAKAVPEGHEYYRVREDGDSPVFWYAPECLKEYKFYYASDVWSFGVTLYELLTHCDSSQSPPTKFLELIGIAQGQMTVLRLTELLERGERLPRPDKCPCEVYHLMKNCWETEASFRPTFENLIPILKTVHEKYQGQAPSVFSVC
T1 sequence (O60674 whole entry): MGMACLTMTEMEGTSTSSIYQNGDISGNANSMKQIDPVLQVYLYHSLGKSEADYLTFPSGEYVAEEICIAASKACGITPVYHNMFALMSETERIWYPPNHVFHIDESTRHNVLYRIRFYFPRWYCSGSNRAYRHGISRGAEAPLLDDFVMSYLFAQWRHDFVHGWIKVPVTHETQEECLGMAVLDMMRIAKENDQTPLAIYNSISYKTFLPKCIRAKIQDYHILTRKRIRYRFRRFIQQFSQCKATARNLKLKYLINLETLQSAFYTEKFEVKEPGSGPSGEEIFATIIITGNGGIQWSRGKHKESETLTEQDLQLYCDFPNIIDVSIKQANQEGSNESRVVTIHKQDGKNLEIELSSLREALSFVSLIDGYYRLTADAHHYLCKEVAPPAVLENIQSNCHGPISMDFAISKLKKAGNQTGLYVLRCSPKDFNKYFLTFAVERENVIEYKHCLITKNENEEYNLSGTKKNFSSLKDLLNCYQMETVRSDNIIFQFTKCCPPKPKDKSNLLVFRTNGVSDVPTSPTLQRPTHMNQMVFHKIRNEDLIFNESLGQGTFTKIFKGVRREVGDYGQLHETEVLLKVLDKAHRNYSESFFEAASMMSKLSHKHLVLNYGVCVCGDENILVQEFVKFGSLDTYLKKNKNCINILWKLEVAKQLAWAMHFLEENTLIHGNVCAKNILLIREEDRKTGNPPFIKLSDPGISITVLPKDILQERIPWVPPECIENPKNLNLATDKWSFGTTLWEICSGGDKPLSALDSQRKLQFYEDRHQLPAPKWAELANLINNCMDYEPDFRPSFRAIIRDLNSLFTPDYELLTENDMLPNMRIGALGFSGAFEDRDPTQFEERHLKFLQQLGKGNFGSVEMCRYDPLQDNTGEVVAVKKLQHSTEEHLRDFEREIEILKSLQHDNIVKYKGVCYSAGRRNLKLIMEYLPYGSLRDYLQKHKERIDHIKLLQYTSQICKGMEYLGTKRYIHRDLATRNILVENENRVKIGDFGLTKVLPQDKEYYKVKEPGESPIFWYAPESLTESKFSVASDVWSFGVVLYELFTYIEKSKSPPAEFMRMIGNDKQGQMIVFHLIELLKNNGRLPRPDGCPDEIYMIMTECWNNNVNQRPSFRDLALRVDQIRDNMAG

SMILES: Cn1cc(-c2cn3nccc3c(-c3cnn([C@]4(CC#N)CC5(C[C@H](C#N)C5)C4)c3)n2)cn1 (some centres unmarked) [Compound of formula (I)]
- IC50 [1]: 4 nM
- IC50 [2]: 0.9 nM
- selective inhibition against TYK2 and/or JAK1 and/or JAK2 ([2]; in vitro activity tests for the four kinase subtypes JAK1, JAK2, JAK3, and TYK2): good selective inhibition
- exposure (in words) [3]: high exposure
- oral bioavailability (in words) [3]: good oral bioavailability

Source: EP4711367A1, “PYRAZOLOPYRAZINE COMPOUND AND METHOD FOR PREPARING CRYSTAL FORM THEREOF” (CMS Research & Development Pte. Ltd., priority 2023, dated 2024)
